Data taken from the NIST ThermoML archive (doi:10.1016/j.jct.2009.05.001).

Assay: xn = mol fraction of the nth substance listed
Settings: 101 kPa, Liquid; for speed of sound: Sing-around technique in a fixed-path interferometer; for mass density: Vibrating tube method

ClCCCl [1,2-dichloroethane] + CCCCCCO
Settings | mass density, 308.15 K [kg/m3] | mass density, 313.15 K [kg/m3] | speed of sound, 308.15 K [m/s] | speed of sound, 313.15 K [m/s]
x1 = 0.037 | 817.675 | 813.926 | 1262.4 | 1246.1
x1 = 0.0769 | 828.456 | 824.595 | 1254.6 | 1238.5
x1 = 0.1499 | 848.617 | 844.565 | 1240.1 | 1223.2
x1 = 0.2147 | 867.202 | 863.005 | 1226.8 | 1210.1
x1 = 0.2935 | 891.704 | 887.346 | 1212.5 | 1195.8
x1 = 0.3952 | 926.131 | 921.594 | 1195.1 | 1177.8
x1 = 0.4532 | 947.081 | 942.428 | 1185.4 | 1167.5
x1 = 0.5596 | 988.685 | 983.815 | 1169.3 | 1151.5
x1 = 0.6113 | 1010.54 | 1005.54 | 1162 | 1144.6
x1 = 0.6971 | 1049.83 | 1044.5 | 1153.5 | 1135.8
x1 = 0.7791 | 1091.94 | 1086.13 | 1148.8 | 1131.2
x1 = 0.8563 | 1135.2 | 1128.8 | 1148 | 1129
x1 = 0.9335 | 1184.46 | 1177.4 | 1151.1 | 1128.9
x1 = 0.979 | 1215.34 | 1207.97 | 1152.8 | 1132.9
x1 = 1 | 1230.88 | 1223.41 | 1155.3 | 1136.2

CCCCCCO [hexan-1-ol] + ClCCCl
x2 = 0
Settings | mass density [kg/m3] | speed of sound [m/s]
308.15 K | 808.056 | 1270.2
313.15 K | 804.397 | 1253.6

BrCCBr [1,2-dibromoethane] + CCCCCCO
Settings | mass density, 308.15 K [kg/m3] | mass density, 313.15 K [kg/m3] | speed of sound, 308.15 K [m/s] | speed of sound, 313.15 K [m/s]
x1 = 0.0402 | 845.2 | 841.335 | 1246.8 | 1230.7
x1 = 0.0682 | 871.58 | 867.573 | 1231.5 | 1215.3
x1 = 0.1276 | 929.152 | 924.828 | 1200.8 | 1184.8
x1 = 0.2056 | 1008.3 | 1003.54 | 1163.8 | 1148.2
x1 = 0.2686 | 1075.32 | 1070.19 | 1136.5 | 1121.2
x1 = 0.3892 | 1211.59 | 1205.72 | 1090.4 | 1075.6
x1 = 0.4277 | 1258.28 | 1252.15 | 1077 | 1062.5
x1 = 0.5444 | 1406.53 | 1399.6 | 1041.2 | 1027.1
x1 = 0.6405 | 1539.27 | 1531.62 | 1016.5 | 1003
x1 = 0.7326 | 1676.75 | 1668.38 | 996.88 | 983.86
x1 = 0.8519 | 1871.88 | 1862.55 | 978.58 | 966.15
x1 = 0.9273 | 2006.87 | 1996.95 | 971.93 | 959.29
x1 = 0.9587 | 2066.14 | 2055.98 | 970.13 | 957.92
x1 = 0.9782 | 2104.45 | 2094.14 | 969.05 | 956.68
x1 = 1 | 2148.2 | 2137.69 | 968.69 | 956.08

CCCCCCO [hexan-1-ol] + BrCCBr
x2 = 0
Settings | mass density [kg/m3] | speed of sound [m/s]
308.15 K | 808.056 | 1270.2
313.15 K | 804.397 | 1253.6

CCCCCCO [hexan-1-ol] + ClC(Cl)C(Cl)Cl
x2 = 0
Settings | mass density [kg/m3] | speed of sound [m/s]
308.15 K | 808.056 | 1270.2
313.15 K | 804.397 | 1253.6

ClC(Cl)C(Cl)Cl [1,1,2,2-tetrachloroethane] + CCCCCCO
Settings | mass density, 308.15 K [kg/m3] | mass density, 313.15 K [kg/m3] | speed of sound, 308.15 K [m/s] | speed of sound, 313.15 K [m/s]
x1 = 0.0688 | 853.014 | 849.095 | 1241.8 | 1225.3
x1 = 0.123 | 889.246 | 885.104 | 1220.7 | 1204.1
x1 = 0.2457 | 973.918 | 969.244 | 1176.4 | 1160
x1 = 0.3618 | 1057.58 | 1052.37 | 1138.6 | 1122.3
x1 = 0.4502 | 1123.79 | 1118.17 | 1112.2 | 1096
x1 = 0.5583 | 1208.04 | 1201.9 | 1082.7 | 1066.7
x1 = 0.6518 | 1283.92 | 1277.31 | 1060 | 1044.2
x1 = 0.7068 | 1329.98 | 1323.07 | 1047.9 | 1032.3
x1 = 0.7419 | 1360.06 | 1352.96 | 1040.7 | 1025.1
x1 = 0.7797 | 1392.95 | 1385.63 | 1033.5 | 1018
x1 = 0.8315 | 1438.91 | 1431.3 | 1024.4 | 1009.1
x1 = 0.8718 | 1475.7 | 1467.85 | 1018 | 1002.8
x1 = 0.9179 | 1518.39 | 1510.31 | 1012.1 | 997.14
x1 = 0.9504 | 1549.36 | 1541.12 | 1009.1 | 994.34
x1 = 1 | 1597.75 | 1589.36 | 1008.9 | 994.15
